Results as given in patent US8901118B2, “Compounds and methods for kinase modulation, and indications therefor” (Plexxikon Inc., priority 2010, dated 2014).
pIC50: −log10 of the molar value.

How the values were obtained:
BCR-KIT BaF3 cells = target: T1, BCR-KIT BaF3 cells (Homo sapiens, UniProt P10721); assay: BaF3 BCR-KIT cell proliferation assay (ATPlite); assay type: cell-based; conditions: read-out: Inhibition of Cell Proliferation IC50, BCR/BaF3 Kit
T1 construct: fused on or other part: P11274 (Breakpoint cluster region protein)
T1 sequence (P10721 589-937): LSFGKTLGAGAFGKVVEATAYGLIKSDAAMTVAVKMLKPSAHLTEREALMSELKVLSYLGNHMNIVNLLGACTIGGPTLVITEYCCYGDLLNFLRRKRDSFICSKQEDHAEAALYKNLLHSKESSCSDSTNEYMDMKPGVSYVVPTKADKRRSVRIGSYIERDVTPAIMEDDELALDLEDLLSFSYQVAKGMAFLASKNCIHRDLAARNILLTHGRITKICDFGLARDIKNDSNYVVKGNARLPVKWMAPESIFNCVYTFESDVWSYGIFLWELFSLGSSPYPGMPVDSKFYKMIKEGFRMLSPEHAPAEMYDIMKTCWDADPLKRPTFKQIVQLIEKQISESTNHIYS
Description: (§1) Compounds are assessed in a variety of cell based assays. For example BaF3 cells engineered with any of BCR-FMS, BCR-KIT, BCR-FLT3, BCR-NTRK1, BCR-NTRK2, and BCR-NTRK3, are used in cell proliferation assays to assess inhibitory activity of Fms, Kit, Flt-3, TrkA, TrkB, and TrkC, respectively. An MV-4-11 (leukemia) cell proliferation assay is used to assess inhibitory activity in Flt-3, and SKNSH (human neuroblastoma) cell proliferation assay is used to assess efficacy of Fms/Trk inhibitors. Additional cells may be assayed similarly to assess the efficacy of Fms/Trk inhibitors, such as MiaPaCa (human pancreatic cancer) and Capan-1 (human pancreatic carcinoma) cells. Reagent and assay conditions are as follows: • BaF3 cells: • Maintained in RPMI containing 10% FBS, 1% PenStrep, 1% NEAA, and 1% L-Glutamine, supplemented with 1 mg/mL G418 and 5% WEHI-CM (or recombinant murine IL-3). • Confluent cells are split 1:50 to 1:100 every 3-4 days. • MV-4-11 cells: • Maintained in Iscove's Modified Dulbecco's Medium containing 10% FBS. • Confluent cells are split 1:4 every 3-4 days. • SKNSH cells: RPMI containing 10% FBS. On day 1, cells are counted, then centrifuged in a conical tube for 5 minutes at 1000 rpm. The supernatant is removed and cells are re-suspended as follows: • BaF3: resuspend in growth media +1 mg/mL G418 (without WEHFIL-3) to 2×10^5 cells/mL. • MV-4-11: resuspend in growth media to 5×10^5 cells/mL. • SKNSH: resuspend in growth media to 2×10^4 cells/mL. The cells are plated (50 μL, 150 μL for SKNSH cells) in each well of a 96-well dish (Corning 3610) and incubated at 37° C. in 5% CO2 overnight, cells plated to a final concentration of cells as follows: • BaF3: 10,000 cells per well. • MV-4-11: 25,000 cells per well. • SKNSH: 3,000 cells per well. On day 2, compound at a maximum concentration of 5 mM is serially diluted 1:3 for a total of 8 point titration with DMSO as a control. A 1 μL aliquot of each dilution point is added to 249 μL growth media and 50 μL is added to a well containing cells, providing 10 μM compound for the maximum concentration point. The cells are incubated for 3 days at 37° C. in 5% CO2. For SKNSH cells, a 0.75 μL aliquot of appropriate dilution in DMSO is added to 150 μL of cells. On day 5, ATPlite 1 step Luminescence Assay System (Perkin Elmer #6016739) is brought to room temperature along with the cell cultures. ATPlite is added to each well as follows: • BaF3: 25 μL per well. • MV-4-11: 40 μL per well. • SKNSH: 20 μL per well. The cells are incubated at room temperature for 10 minutes, then luminescence is read on Safire reader. The measured luminescence correlates directly with cell number, such that the reading as a function of compound concentration is used to determine the IC50 value.
(§2) It is understood that the results of these assays may vary as assay conditions are varied. Inhibition levels determined under the conditions described herein represent a relative activity for the compounds tested under the specific conditions employed. The cell based assays are likely to show variability due to the complexity of the system and the sensitivity thereof to any changes in the assay conditions. […] Results for compounds that are tested and show substantially no inhibition below the highest tested concentration are represented as “-” in the tables below. In some instances, the compounds were not tested in all of the assays, or assay results were not valid, as indicated by NA in the tables below.

BCR-NTRK1 BaF3 cells = target: T2, BCR-NTRK1 BaF3 cells (Homo sapiens, UniProt P04629); assay: BaF3 BCR-NTRK1 cell proliferation assay (ATPlite); assay type: cell-based; conditions: read-out: Inhibition of Cell Proliferation IC50, BCR/BaF3 TrkA
T2 construct: fused on or other part: P11274 (Breakpoint cluster region protein)
T2 sequence (P04629 510-781): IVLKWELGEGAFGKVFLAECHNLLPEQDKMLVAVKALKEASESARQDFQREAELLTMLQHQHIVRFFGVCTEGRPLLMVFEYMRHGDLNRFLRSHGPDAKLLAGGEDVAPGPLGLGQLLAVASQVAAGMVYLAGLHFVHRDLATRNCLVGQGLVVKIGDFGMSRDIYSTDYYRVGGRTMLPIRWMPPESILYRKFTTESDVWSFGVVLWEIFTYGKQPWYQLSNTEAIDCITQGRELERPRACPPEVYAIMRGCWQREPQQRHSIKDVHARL
Description: as §1, §2

BCR-NTRK2 BaF3 cells = target: T3, BCR-NTRK2 BaF3 cells (Homo sapiens, UniProt Q16620); assay: BaF3 BCR-NTRK2 cell proliferation assay (ATPlite); assay type: cell-based; conditions: read-out: Inhibition of Cell Proliferation IC50, BCR/BaF3 TrkB
T3 construct: fused on or other part: P11274 (Breakpoint cluster region protein)
T3 sequence (Q16620 538-807): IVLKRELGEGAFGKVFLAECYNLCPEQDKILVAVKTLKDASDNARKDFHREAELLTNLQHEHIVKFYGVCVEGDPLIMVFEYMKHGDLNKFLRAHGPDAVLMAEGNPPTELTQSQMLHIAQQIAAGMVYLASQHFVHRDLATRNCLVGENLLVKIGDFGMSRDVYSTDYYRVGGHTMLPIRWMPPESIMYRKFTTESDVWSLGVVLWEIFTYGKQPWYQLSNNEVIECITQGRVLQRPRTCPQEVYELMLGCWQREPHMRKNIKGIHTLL
Description: as §1, §2

CYP2C9 = CYP2C9 (Homo sapiens, UniProt P11712); assay: CYP2C9 inhibition (fluorescent substrate MFC); assay type: in vitro ADME; conditions: read-out: Cyp IC50 2C9
Sequence of CYP2C9 (P11712 whole entry): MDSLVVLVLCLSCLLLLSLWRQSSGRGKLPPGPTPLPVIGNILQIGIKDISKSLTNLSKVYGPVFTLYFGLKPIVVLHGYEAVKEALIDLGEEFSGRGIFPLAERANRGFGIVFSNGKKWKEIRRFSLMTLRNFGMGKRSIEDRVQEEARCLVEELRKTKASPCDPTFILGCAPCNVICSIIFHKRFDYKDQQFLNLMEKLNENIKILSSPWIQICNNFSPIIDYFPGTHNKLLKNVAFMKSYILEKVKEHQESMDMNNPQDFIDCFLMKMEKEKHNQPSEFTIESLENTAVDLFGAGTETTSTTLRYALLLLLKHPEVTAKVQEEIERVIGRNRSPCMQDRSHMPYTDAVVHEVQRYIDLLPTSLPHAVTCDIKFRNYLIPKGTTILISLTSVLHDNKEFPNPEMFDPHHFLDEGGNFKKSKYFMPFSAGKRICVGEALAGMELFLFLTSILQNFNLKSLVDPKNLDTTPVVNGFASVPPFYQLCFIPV
Description: CYP (Cytochrome P450) enzymes are the major drug metabolizing enzymes present in the liver. The inhibition of CYP enzyme activity (IC50) for each of CYP1A2, CYP2C19, CYP2C9, CYP2D6, CYP3A4(BFC) and CYP3A4(BQ) is determined for compounds, where inhibition of metabolism of a known substrate leads to a decrease in the fluorescence of the metabolized product. The fluorescence of the product is monitored as a function of compound concentration. Compounds are dissolved in DMSO to a concentration of 100 mM. These are diluted 1 μL into 82 μL of acetonitrile. An 11 μL aliquot of this solution is then added to 204 μL of cofactor mix (1.3% NADPH Regeneration system Solution A, 1.04% NADPH Regeneration system Solution B from BD Biosciences, 5% acetonitrile and 0.05% DMSO). These are then serially diluted 1:1 (160 μL to 160 μL co-factor mix) for a total of 10 points. A 10 μL aliquot of this final mixture is dispensed into 384 well assay plates and incubated for 10 minutes at 37° C. […] Assay plates are incubated at 37° C. (CYP1A2-15 min; CYP2C9-45 min; CYP2C19, 2D6 and 3A4-30 min) and read in a Tecan Safire 2 plate reader (CYP1A2, 2C19 and 3A4 409 ex/460 em; CYP2C9 and 2D6 409 ex/530 em). The signal versus compound concentration is used to determine the IC50. The enzymes and substrates for this assay are obtained from BD Biosciences.

SMILES	pIC50 (BCR-KIT BaF3 cells)	pIC50 (BCR-NTRK1 BaF3 cells)	pIC50 (BCR-NTRK2 BaF3 cells)	pIC50 (CYP2C9)
CC1CCC(Nc2ncc(Cc3c[nH]c4ncc(Cl)cc34)cn2)CC1 (centres unmarked) [Compound P-3009, [5-(5-Chloro-1H-pyrrolo[2,3-b]pyridin-3-ylmethyl)-pyrimidin-2-yl]-(4-methyl-cyclohexyl)-amine]	< 6.00	< 5.00	< 5.00	< 5.00
Cc1cnc2[nH]cc(Cc3cnc(Nc4ccc(F)cc4)nc3)c2c1 [Compound P-3010, (4-Fluoro-phenyl)-[5-(5-methyl-1H-pyrrolo[2,3-b]pyridin-3-ylmethyl)-pyrimidin-2-yl]-amine]	> 6.00	< 5.00	< 5.00	< 5.00
Fc1nc(NC2CCC(F)(F)CC2)ccc1Cc1c[nH]c2ncc(Cl)cc12 [Compound P-3013, [5-(5-Chloro-1H-pyrrolo[2,3-b]pyridin-3-ylmethyl)-6-fluoro-pyridin-2-yl]-(4,4-difluoro-cyclohexyl)-amine]	< 6.00	< 5.00	< 5.00	< 5.00
Fc1ccccc1Nc1ncc(Cc2c[nH]c3ncc(Cl)cc23)cn1 [Compound P-3014, [5-(5-Chloro-1H-pyrrolo[2,3-b]pyridin-3-ylmethyl)-pyrimidin-2-yl]-(2-fluoro-phenyl)-amine]	< 6.00	< 5.00	< 5.00	
Clc1cnc2[nH]cc(Cc3cnc(Nc4ccccc4Cl)nc3)c2c1 [Compound P-3015, (2-Chloro-phenyl)-[5-(5-chloro-1H-pyrrolo[2,3-b]pyridin-3-ylmethyl)-pyrimidin-2-yl]-amine]	< 6.00	< 5.00	< 5.00	
O=C(c1ccc(NC2CCC(F)(F)CC2)nc1Cl)c1c[nH]c2ncnc(NCC(F)(F)F)c12 [Compound P-4057, [2-chloro-6-[(4,4-difluorocyclohexyl)amino]-3-pyridyl]-[4-(2,2,2-trifluoroethylamino)-7H-pyrrolo[2,3-d]pyrimidin-5-yl]methanone]	< 6.00	< 6.00	< 6.00	< 5.00
CNc1ncnc2[nH]cc(C(=O)c3ccc(NC4CCC(F)(F)CC4)nc3Cl)c12 [Compound P-4058, [2-chloro-6-[(4,4-difluorocyclohexyl)amino]-3-pyridyl]-[4-(methylamino)-7H-pyrrolo[2,3-d]pyrimidin-5-yl]methanone]	> 6.00	> 6.00	> 6.00	< 5.00
O=C(c1ccc(NC2CCC(F)(F)CC2)nc1Cl)c1c[nH]c2ncnc(NC3CC3)c12 [Compound P-4059, [2-chloro-6-[(4,4-difluorocyclohexyl)amino]-3-pyridyl]-[4-(cyclopropylamino)-7H-pyrrolo[2,3-d]pyrimidin-5-yl]methanone]	< 6.00	> 6.00	> 7.00	5.00 to 5.30
CNc1ncnc2[nH]cc(C(=O)c3ccc(Nc4ccc(OC)nc4)nc3OC)c12 [Compound P-4085, [2-methoxy-6-[(6-methoxy-3-pyridyl)amino]-3-pyridyl]-[4-(methylamino)-7H-pyrrolo[2,3-d]pyrimidin-5-yl]methanone]	< 6.00	> 6.00		

Second part, the molecule after the results:

pIC50 (BCR-KIT BaF3 cells)	pIC50 (BCR-NTRK1 BaF3 cells)	pIC50 (BCR-NTRK2 BaF3 cells)	pIC50 (CYP2C9)	SMILES
> 7.00	> 6.00	> 6.00	< 5.00	Clc1ccc(Nc2ncc(Cc3c[nH]c4ncc(Cl)cc34)cn2)cc1 [Compound P-3011, (4-Chloro-phenyl)-[5-(5-chloro-1H-pyrrolo[2,3-b]pyridin-3-ylmethyl)-pyrimidin-2-yl]-amine]
> 6.00	> 6.00	> 6.00	< 5.00	Fc1ccc(Nc2ncc(Cc3c[nH]c4ncc(Cl)cc34)cn2)cc1 [Compound P-3012, [5-(5-Chloro-1H-pyrrolo[2,3-b]pyridin-3-ylmethyl)-pyrimidin-2-yl]-(4-fluoro-phenyl)-amine]
< 6.00	> 6.00	> 8.00	< 5.00	COc1ccc(Nc2ccc(C(=O)c3c[nH]c4ncnc(NC(C)(C)C)c34)c(F)n2)cn1 [Compound P-4055, [4-(tert-butylamino)-7H-pyrrolo[2,3-d]pyrimidin-5-yl]-[2-fluoro-6-[(6-methoxy-3-pyridyl)amino]-3-pyridyl]methanone]
< 6.00	> 6.00	> 8.00	< 5.00	COc1ccc(Nc2ccc(C(=O)c3c[nH]c4ncnc(NC5CCC(F)(F)CC5)c34)c(F)n2)cn1 [Compound P-4056, [4-[(4,4-difluorocyclohexyl)amino]-7H-pyrrolo[2,3-d]pyrimidin-5-yl]-[2-fluoro-6-[(6-methoxy-3-pyridyl)amino]-3-pyridyl]methanone]
> 7.00	> 8.00	> 8.00	< 5.00	CCNc1ncnc2[nH]cc(C(=O)c3ccc(Nc4ccc(C5CC5)nc4)nc3F)c12 [Compound P-4060, [6-[(6-cyclopropyl-3-pyridyl)amino]-2-fluoro-3-pyridyl]-[4-(ethylamino)-7H-pyrrolo[2,3-d]pyrimidin-5-yl]methanone]
	> 8.00			CCc1ccc(Nc2ccc(C(=O)c3c[nH]c4ncnc(Nc5ccc(C)nc5)c34)c(F)n2)cn1 [Compound P-4086, [6-[(6-ethyl-3-pyridyl)amino]-2-fluoro-3-pyridyl]-[4-[(6-methyl-3-pyridyl)amino]-7H-pyrrolo[2,3-d]pyrimidin-5-yl]methanone]
> 6.00	> 7.00		< 5.00	Cc1ccc(Nc2ccc(C(=O)c3c[nH]c4ncnc(NCC5CC5)c34)c(F)n2)cn1 [Compound P-4113, [4-(cyclopropylmethylamino)-7H-pyrrolo[2,3-d]pyrimidin-5-yl]-[2-fluoro-6-[(6-methyl-3-pyridyl)amino]-3-pyridyl]methanone]
> 6.00	> 8.00		< 5.00	CCCNc1ncnc2[nH]cc(C(=O)c3ccc(Nc4ccc(C)nc4)nc3F)c12 [Compound P-4114, [2-fluoro-6-[(6-methyl-3-pyridyl)amino]-3-pyridyl]-[4-(propylamino)-7H-pyrrolo[2,3-d]pyrimidin-5-yl]methanone]
